Where two headings read alike, the source gives them in different places.
How the values were obtained:
[1] = molecular target: T1, OATP1B1 (Homo sapiens, UniProt Q9Y6L6)
T1 sequence (Q9Y6L6 1-691): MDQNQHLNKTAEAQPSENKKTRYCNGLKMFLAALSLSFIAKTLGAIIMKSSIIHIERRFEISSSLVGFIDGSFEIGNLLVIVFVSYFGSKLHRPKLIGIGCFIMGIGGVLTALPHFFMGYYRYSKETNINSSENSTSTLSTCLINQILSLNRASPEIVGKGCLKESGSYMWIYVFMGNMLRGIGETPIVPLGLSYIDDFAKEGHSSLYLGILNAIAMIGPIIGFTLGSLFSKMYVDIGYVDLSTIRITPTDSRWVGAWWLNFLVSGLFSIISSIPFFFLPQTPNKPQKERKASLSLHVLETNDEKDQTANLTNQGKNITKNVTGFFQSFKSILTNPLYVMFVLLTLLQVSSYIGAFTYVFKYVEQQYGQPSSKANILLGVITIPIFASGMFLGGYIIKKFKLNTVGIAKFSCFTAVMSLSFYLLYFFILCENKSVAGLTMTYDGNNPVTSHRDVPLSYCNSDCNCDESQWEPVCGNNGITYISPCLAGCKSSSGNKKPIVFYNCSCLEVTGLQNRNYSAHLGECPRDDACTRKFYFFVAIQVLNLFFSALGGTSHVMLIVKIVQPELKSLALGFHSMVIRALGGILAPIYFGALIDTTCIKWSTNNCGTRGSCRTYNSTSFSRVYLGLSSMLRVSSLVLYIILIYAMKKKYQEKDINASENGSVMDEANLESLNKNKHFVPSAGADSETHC

[2] = physchem; assay type: physicochemical
From the text: (§1) […]. […] […]. […] […]

[3] = ref 6 of supplement, cited from earlier work; for AUC0-inf observed / Cmax observed: geometric mean; for tmax observed: median
[4] = test system: cholesterol 24‐hydroxylase (CH24H); conditions: 100, 200, and 300 mg BID, cited from earlier work
[5] = molecular target: T2, UGT2B4 (Homo sapiens, UniProt P06133); conditions: both, 20 min, pH 7.4
T2 sequence (P06133 24-528): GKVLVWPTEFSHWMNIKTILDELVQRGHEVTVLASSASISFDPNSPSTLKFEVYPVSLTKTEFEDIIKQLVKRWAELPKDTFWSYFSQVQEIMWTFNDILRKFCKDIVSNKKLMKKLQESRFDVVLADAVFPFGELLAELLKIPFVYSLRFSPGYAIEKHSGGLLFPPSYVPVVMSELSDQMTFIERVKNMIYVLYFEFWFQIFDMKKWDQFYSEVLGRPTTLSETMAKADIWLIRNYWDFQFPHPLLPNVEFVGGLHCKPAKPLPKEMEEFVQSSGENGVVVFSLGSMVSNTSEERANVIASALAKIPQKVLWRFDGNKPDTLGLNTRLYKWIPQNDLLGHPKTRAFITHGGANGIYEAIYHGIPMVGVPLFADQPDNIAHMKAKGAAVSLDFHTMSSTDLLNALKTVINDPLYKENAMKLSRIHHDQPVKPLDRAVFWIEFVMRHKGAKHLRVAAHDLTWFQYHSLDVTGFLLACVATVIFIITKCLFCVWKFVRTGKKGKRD

[6] = molecular target: T3, P‐gp (Homo sapiens, UniProt P08183); assay type: in vitro ADME
T3 construct: Caco-2 cells were obtained from American Type Culture Collection; host or cells: Caco-2 cell monolayers
T3 sequence (P08183 whole entry): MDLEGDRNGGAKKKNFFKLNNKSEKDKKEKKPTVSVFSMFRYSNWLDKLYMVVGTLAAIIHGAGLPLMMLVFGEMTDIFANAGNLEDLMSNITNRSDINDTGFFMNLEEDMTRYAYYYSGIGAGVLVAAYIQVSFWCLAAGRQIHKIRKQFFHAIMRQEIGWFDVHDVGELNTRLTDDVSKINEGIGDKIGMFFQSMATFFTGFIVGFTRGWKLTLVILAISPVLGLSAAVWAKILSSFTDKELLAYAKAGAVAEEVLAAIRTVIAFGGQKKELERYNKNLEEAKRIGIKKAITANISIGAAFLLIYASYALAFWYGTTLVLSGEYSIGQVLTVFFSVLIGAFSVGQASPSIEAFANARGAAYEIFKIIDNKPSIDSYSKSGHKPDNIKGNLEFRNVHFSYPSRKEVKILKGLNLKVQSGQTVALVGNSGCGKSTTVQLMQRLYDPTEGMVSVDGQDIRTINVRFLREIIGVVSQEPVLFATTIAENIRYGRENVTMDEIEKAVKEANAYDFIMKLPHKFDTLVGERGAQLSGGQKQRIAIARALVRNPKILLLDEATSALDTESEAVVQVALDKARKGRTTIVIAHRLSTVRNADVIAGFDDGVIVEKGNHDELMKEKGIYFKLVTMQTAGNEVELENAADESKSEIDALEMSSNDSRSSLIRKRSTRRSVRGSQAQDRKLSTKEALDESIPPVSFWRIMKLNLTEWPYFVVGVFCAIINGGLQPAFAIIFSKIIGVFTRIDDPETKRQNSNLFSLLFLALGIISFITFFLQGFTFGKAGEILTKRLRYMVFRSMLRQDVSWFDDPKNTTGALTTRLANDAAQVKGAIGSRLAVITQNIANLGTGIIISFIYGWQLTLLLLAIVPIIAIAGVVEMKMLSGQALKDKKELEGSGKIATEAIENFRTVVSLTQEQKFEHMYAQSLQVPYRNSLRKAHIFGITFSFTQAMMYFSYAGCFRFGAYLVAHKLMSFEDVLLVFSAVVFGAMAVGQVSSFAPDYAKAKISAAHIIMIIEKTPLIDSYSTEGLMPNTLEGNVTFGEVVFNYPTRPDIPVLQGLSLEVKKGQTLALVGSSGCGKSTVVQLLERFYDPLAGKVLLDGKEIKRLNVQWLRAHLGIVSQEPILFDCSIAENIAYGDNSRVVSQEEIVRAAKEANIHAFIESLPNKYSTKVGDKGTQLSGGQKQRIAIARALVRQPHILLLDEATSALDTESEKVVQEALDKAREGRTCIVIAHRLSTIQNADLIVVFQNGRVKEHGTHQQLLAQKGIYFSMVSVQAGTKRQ
Protocol: (§2) Prior to the experiments,
(§3) The cells were cultured at […]
(§4) measuring the trans-epithelial electrical resistance (TEER) value. The TEER values of cell […]
(§5) The volumes of the replaced […]
(§6) shaker at 37°C until use.
(§7) Apical to Basal Transport (A to B).
(§8) (soticlestat or quinidine) were added.
(§9) After incubation for 1 hour, 100 μL […]
(§10) radioactivity using an LSC. […]
(§11) collected and measured for the radioactivity using an LSC.
(§12) Basal to Apical Transport (B to A).
(§13) (soticlestat or quinidine) were added. […] Then […]
(§14) cells were incubated at 37°C.
(§15) HBSS solution were added to the apical side.

[7] = molecular target: T4, P‐glycoprotein (P‐gp) (Homo sapiens, UniProt P08183); assay type: in vitro ADME
T4 construct: Caco-2 cells were obtained from American Type Culture Collection; host or cells: Caco-2 cell monolayers
T4 sequence (P08183 whole entry): as above
Protocol: as §2, §3, §4, §5, §6, §7, §8, §9, §10, §11, §12, §13, §14, §15

[8] = molecular target: CYP2C19 (Homo sapiens, UniProt P33261); assay: Reversible CYP inhibition in human liver microsomes
Sequence of CYP2C19 (P33261 whole entry): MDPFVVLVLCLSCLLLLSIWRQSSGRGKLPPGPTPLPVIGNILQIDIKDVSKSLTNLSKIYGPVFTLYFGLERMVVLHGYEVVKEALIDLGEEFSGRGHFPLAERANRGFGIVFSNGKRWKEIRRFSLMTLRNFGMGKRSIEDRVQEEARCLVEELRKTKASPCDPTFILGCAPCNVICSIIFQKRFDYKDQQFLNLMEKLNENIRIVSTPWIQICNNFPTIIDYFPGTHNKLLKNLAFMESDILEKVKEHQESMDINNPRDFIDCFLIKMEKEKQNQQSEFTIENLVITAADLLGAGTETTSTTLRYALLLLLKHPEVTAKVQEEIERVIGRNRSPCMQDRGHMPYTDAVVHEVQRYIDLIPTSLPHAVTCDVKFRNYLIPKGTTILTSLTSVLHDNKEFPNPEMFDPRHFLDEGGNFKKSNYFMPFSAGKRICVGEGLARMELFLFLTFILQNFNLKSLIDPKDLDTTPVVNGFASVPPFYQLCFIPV

[9] = molecular target: T2, UGT2B4; set-up: with alamethicin-pretreated HLMs (0.5 mg/mL); tissue Sekisui-XenoTech; host or cells: pooled human liver microsomes (200 donors); conditions: predicted by combining in vitro phenotyping and human ADME data; cited from earlier work
[10] = test system: human hepatocytes; conditions: both, 10 μmol/L
[11] = cited from earlier work
[12] = molecular target: T2, UGT2B4; assay: PBPK elimination inputs (retrograde model, fm, KM sensitivity); conditions: PBPK input
[13] = in vitro; assay type: in vitro ADME
From the text: as §1

[14] = molecular target: T1, OATP1B1; remark: listed apart in the source
[15] = 300 mg single oral dose, geometric mean, clinical ADME study, ref 5 of supplement

For `O=C(c1cccnc1-c1ccncc1)N1CCC(O)(Cc2ccccc2)CC1` [Soticlestat], the “substrate for OATP1B1” value [1] was “not a substrate”, the logP [2] was 1.4 and the pKa [2] was 3.37. For the same molecule, the Compound type ([2]; PBPK input) was “Monoprotic base”, the AUC0-inf observed ([3]; 15 mg single oral dose) was 22.6 ng·h/mL and the Cmax observed ([3]; 15 mg single oral dose) was 33.5 ng/mL. The tmax observed ([3]; 15 mg single oral dose) was 15 min, the AUC0-inf observed ([3]; 50 mg single oral dose) was 134 ng·h/mL and the Cmax observed ([3]; 50 mg single oral dose) was 167 ng/mL. For the same molecule, the tmax observed ([3]; 50 mg single oral dose) was 15 min, the AUC0-inf observed ([3]; 200 mg single oral dose) was 591 ng·h/mL and the Cmax observed ([3]; 200 mg single oral dose) was 527 ng/mL. For the same molecule, the tmax observed ([3]; 200 mg single oral dose) was 15 min, the AUC0-inf observed ([3]; 600 mg single oral dose) was 4937 ng·h/mL and the Cmax observed ([3]; 600 mg single oral dose) was 3847 ng/mL. For the same molecule, the tmax observed ([3]; 600 mg single oral dose) was 30 min, the AUC0-inf observed ([3]; 900 mg single oral dose) was 7454 ng·h/mL and the Cmax observed ([3]; 900 mg single oral dose) was 4814 ng/mL. The AUC0-inf observed ([3]; 1350 mg single oral dose) was 12,699 h.ng/mL, the Cmax observed ([3]; 1350 mg single oral dose) was 7672 ng/mL and the tmax observed ([3]; 1350 mg single oral dose) was 48 min. The 24HC reduction ([4]; steady state) was at least 60%, the “steady‐state enzyme occupancy” value [4] was at least 65% and the “fm of total UGT mediated glucuronidation via UGT2B4” value [5] was about 90%. For the same molecule, the “substrate for P‐gp” value [6] was “not a substrate”, the IC50 [7] was 81.1 µM and the Ki [7] was 80 µM. The Ki [8] was 9.5 µM, the fumic ([8]; human) was 0.88 and the “inhibition of CYP2C19” value ([8]; microsomes) was “low double‐digit micromolar values”. For the same molecule, the “fm by UGT2B4” value [9] was 81.2%, the metabolized by glucuronidation [10] was about 66% and the “oxidation via CYP3A” value [10] was about 33%. For the same molecule, the AUC0-inf observed [11, 15] was 1294 ng·h/mL, the Cmax observed [11, 15] was 995 ng/mL and the tmax observed ([11]; 300 mg single oral dose, median, clinical ADME study, ref 5 of supplement) was 31.8 min. The “CLIV (mean IV clearance)” value ([11]; IV microdose [14C] soticlestat 50 µg with oral 300 mg) was 28.7 L/h, the “CYP contribution to clearance” value ([11]; human radiolabeled ADME study) was 9.5% and the “cleared by UGT metabolism” value ([11]; human radiolabeled ADME study) was 90.5%. The “CLR (mean renal clearance)” value ([11]; single oral dose [14C] soticlestat 300 mg, healthy volunteers) was 0.22 L/h, the fmUGT2B4 [12] was 0.8 and the Main binding protein [13] was “AAG”. The fraction unbound [13] was 0.066 and the “inhibition of OATP1B1” value [14] was “did not demonstrate clinically relevant inhibition”.
